# Where two headings read alike, the source gives them in different places.
# What was measured:
# [1] = Adverse events in subjects receiving brequinar intravenously once a week (Example 2); type: in vivo, human; conditions: 209 subjects, i.v. once a week, median dose 1200 mg/m^2
# [2] = tested on: advanced malignancies; conditions: cited from earlier work
# [3] = molecular target: DHODH (Mus musculus, UniProt O35435); experiment: Plasma DHO in mice after brequinar 50 mg/kg (FIG. 6); conditions: at about 84 hours, FIG. 6 dashed line
# DHODH (Mus musculus, UniProt O35435), sequence (O35435 whole entry): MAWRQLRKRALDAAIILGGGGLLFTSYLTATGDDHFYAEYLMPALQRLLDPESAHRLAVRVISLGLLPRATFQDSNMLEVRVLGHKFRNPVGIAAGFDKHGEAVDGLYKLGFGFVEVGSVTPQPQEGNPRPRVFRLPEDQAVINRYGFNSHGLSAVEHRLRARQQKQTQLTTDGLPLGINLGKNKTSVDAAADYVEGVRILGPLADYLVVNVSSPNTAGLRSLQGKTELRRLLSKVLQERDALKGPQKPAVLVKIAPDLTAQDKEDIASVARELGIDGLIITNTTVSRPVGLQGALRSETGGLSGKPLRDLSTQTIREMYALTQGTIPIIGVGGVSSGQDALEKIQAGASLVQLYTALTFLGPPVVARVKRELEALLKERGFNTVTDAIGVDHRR
# [4] = molecular target: DHODH (Homo sapiens, UniProt Q02127); conditions: for DHO plasma level threshold achieved: after a dose
# DHODH (Homo sapiens, UniProt Q02127), sequence (Q02127 whole entry): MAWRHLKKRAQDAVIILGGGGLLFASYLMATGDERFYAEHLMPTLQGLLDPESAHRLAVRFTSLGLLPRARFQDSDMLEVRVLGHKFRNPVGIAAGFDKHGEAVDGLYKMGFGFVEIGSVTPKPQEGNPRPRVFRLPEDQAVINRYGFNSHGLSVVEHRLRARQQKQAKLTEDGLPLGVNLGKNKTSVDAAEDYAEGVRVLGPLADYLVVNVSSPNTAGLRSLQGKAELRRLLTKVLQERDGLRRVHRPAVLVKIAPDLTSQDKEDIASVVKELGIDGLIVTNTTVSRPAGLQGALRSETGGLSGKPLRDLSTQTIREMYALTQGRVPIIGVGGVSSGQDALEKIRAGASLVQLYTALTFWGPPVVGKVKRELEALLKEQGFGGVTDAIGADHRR
# [5] = tested on: acute myeloid leukemia (AML); experiment: Clinical response of patients with AML to brequinar-containing composition (Examples 9-11); type: in vivo, human
# [6] = tested on: mouse model of AML; conditions: daily administration of high doses; cited from earlier work
# [7] = tested on: solid malignancies; conditions: 43 patients; patient with papillary carcinoma of the thyroid (Schwartsmann); cited from earlier work
# [8] = Example 9, first patient with AML, threshold 1,600 ng/mL
# [9] = Example 10, second patient with AML, threshold 2,900 ng/mL
# [10] = Example 11, patient with AML, threshold 133 ng/mL
Structure (SMILES),"Dyspepsia: No. of Patients Experiencing the AE, Max Grade 1 [1]",effect of combination on individual drug pharmacokinetic parameters ([2]; 650 mg/m^2 brequinar with 75 mg/m^2 cisplatin (Burris)),"brequinar dose that can be administered with full dose cisplatin ([2]; brequinar days 1, 8 and 15 with 75 mg/m^2 cisplatin day 1, 28-day cycle (Burris))",concentration of DHO remaining in the plasma [3],"DHO plasma level threshold achieved ([4]; Example 9, first patient with AML)","time remained above DHO threshold [4, 8]","time to achieve DHO plasma level threshold [4, 8]","DHO plasma level threshold achieved ([4]; Example 10, second patient with AML)","time remained above DHO threshold [4, 9]","time to achieve DHO plasma level threshold [4, 9]","DHO plasma level threshold achieved ([4]; Example 11, patient with AML)","time remained above DHO threshold [4, 10]","time to achieve DHO plasma level threshold [4, 10]","clinical response ([5]; Example 9, first patient with AML, bone marrow blast count, extramedullary hematopoiesis, differentiation of peripheral blasts)","clinical response ([5]; Example 10, second patient with AML, peripheral blasts, absolute neutrophil count, differentiation of peripheral blasts)","clinical response ([5]; Example 11, patient with AML, trend towards differentiation of peripheral blasts)",toxicity in mouse model of AML [6],tumor response observed [7]
"Cc1c(-c2ccc(-c3ccccc3F)cc2)nc2ccc(F)cc2c1C(=O)O [brequinar, 6-fluoro-2-(2′-fluoro-1,1′ biphenyl-4-yl)-3-methyl-4-quinoline carboxylic acid]",6,without significant modifications of individual drug pharmacokinetic parameters,650 mg/m^2,about 100 ng/mL,"≥ 1,600 ng/mL",84 h,less than 24 hours,"≥ 2,900 ng/mL",84 h,< 24 h,≥ 133 ng/mL,84 h,less than 2 hours,positive response,positive response,positive response,"weight loss, anemia, and thrombocytopenia",–
Cc1c(-c2ccc(-c3ccccc3F)cc2)nc2ccc(F)cc2c1C(=O)O [Brequinar sodium],–,–,–,–,–,–,–,–,–,–,–,–,–,–,–,–,–,One mixed response

# Reference: US12012383B2, “Compositions and methods for inhibiting dihydroorotate dehydrogenase” (Clear Creek Bio, Inc., priority 2018, dated 2024)
